Experimental data from US7105725B2, “Pathogen resistant transgenic plants expressing CEMA or CEMA-related peptides” (University of Victoria Innovation and Development …, priority 1999, dated 2006).

Experiments:
E. coli = assay: anti-bacterial assay (colony count after 4 h with serially diluted peptide); type: cell-based, Escherichia coli DH5α
Method: The antibacterial activity of a given CEMA and/or CEMA-related peptide can be assessed conveniently by determining the ability of the peptide to inhibit the growth of a pectinolytic bacterial strain such as Erwinia carotovora or even Escherichia coli DH5α. The activity of a given peptide is determined by serially diluting the peptide in Luria-Bertaini (LB) medium and 100-μL aliquots of the resulting titers into wells of a 96-well microtiter plate. A fresh bacterial culture (˜0.3 A550) is then grown on LB medium (1% w/v tryptone and 0.5% w/v yeast extract) and diluted to 10^−2 in LB to represent approximately 10^4–10^5 colony forming units (CFU)mL^−1. 10 μL of the bacterial culture are then inoculated into each well containing the peptide and the samples are incubated at 37° C. for 4 hours. The well contents are then diluted in LB, plated on LB agar, and incubated overnight at an appropriate temperature. […] The colonies are counted, and the antibacterial activity of the peptide under test is determined by comparison to the control plate.
The CEMA or CEMA-related peptide is determined to have biological activity if, under the conditions of this assay, the peptide is capable of inhibiting bacterial growth by at least 10% (compared to the control) at a concentration of 7 μg per mL (i.e., at this concentration, the number of bacterial colonies is no more than 90% that of the control plate).

[1] = system: susceptible microorganisms; conditions: cited from earlier work

Substance	concentration that kills 50% of bacterial cells (E. coli) [µg/mL]	antimicrobial activity [1]
KWKLFKKIGIGAVLKVLTTGLPALKLTK [CEMA]	4.5	–
mellitin	–	potent antimicrobial activity
